According to patent publication US10517889B2, “Modulators of SMAD7 expression” (Ionis Pharmaceuticals, Inc., priority 2017, dated 2019):
Strand notation (5' to 3'): a small letter for the sugar, then the base; units joined by * are phosphorothioate-linked, units joined directly phosphodiester-linked; [ ] holds rarer units or linkages, { } end groups; capitals alone tell only the bases. e = 2'-O-(2-methoxyethyl) (MOE); [5mC] = 5-methylcytosine; d = 2'-deoxy (DNA)

Test system: human SMAD7 mRNA
Test: Antisense inhibition of human SMAD7 mRNA expression in Hep3B cells by 5-10-5 MOE gapmers, single concentration, electroporation, RT-PCR (Example 1, Study 1 and 2)
Assay type: cell-based
Details: for % Inhibition: Study 2, electroporation with 15,000 nM antisense oligonucleotide; for % Inhibition of SMAD7 mRNA: electroporation with 15,000 nM antisense oligonucleotide (Study 2)
Summary of the method: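 Hep3B cells (20,000/well) electroporated with 5-10-5 MOE gapmer at 5,000 nM or 15,000 nM for approximately 24 h. SMAD7 mRNA quantified by real-time PCR with primer probe set RTS5062 and normalized to RIBOGREEN total RNA. Values are percent inhibition relative to untreated controls.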

[1] = 5-10-5 MOE gapmers targeting SEQ ID NO: 1 and 2
[2] = electroporation, 15,000 nM, approximately 24 hours, relative to untreated control cells, gapmers targeting SEQ ID NO: 1 and 2
[3] = electroporation, 15,000 nM antisense oligonucleotide (Study 2), 5-10-5 MOE gapmers targeting SEQ ID NO: 1 and 2
[4] = electroporation, 5,000 nM, approximately 24 hours, relative to untreated control cells, gapmers targeting SEQ ID NO: 1 and 2

Substance: 771724 (antisense e[5mC]*e[5mC]*eT*eT*e[5mC]*dT*d[5mC]*d[5mC]*d[5mC]*dA*dG*dA*dA*d[5mC]*d[5mC]*eT*eT*eG*eG*e[5mC]) [compound 771724]
- % Inhibition [1]: 27%

Substance: 771725 (antisense e[5mC]*eT*eT*eG*eA*dG*dG*dG*dA*dG*d[5mC]*dT*dG*dG*dT*eA*eG*eA*eG*eT) [compound 771725]
- % inhibition of SMAD7 mRNA expression [2]: 8%

Substance: 771726 (antisense eA*eG*e[5mC]*e[5mC]*eA*dA*dA*dA*d[5mC]*d[5mC]*d[5mC]*dA*dG*dT*d[5mC]*eA*eA*eG*eT*eT) [compound 771726]
- % Inhibition [1]: 19%

Substance: 771727 (antisense eA*eA*e[5mC]*eA*eT*dG*dG*d[5mC]*d[5mC]*dT*dT*dT*d[5mC]*dT*dT*eT*eT*e[5mC]*eT*eA) [compound 771727]
- % Inhibition [1]: 0%

Substance: 771728 (antisense eA*eA*e[5mC]*eT*eT*dT*dT*d[5mC]*dT*d[5mC]*d[5mC]*d[5mC]*d[5mC]*d[5mC]*dT*eT*eG*eG*eA*eA) [compound 771728]
- % Inhibition of SMAD7 mRNA [1]: 7%
- % inhibition of SMAD7 mRNA expression [3]: 1%

Substance: 771729 (antisense eT*eG*e[5mC]*eT*e[5mC]*d[5mC]*dA*dG*d[5mC]*dT*d[5mC]*d[5mC]*dA*dG*dA*e[5mC]*e[5mC]*eT*eG*eG) [compound 771729]
- % inhibition of SMAD7 mRNA expression [3]: 35%

Substance: 771730 (antisense eA*eA*eT*eG*e[5mC]*d[5mC]*d[5mC]*d[5mC]*d[5mC]*dG*dG*d[5mC]*d[5mC]*dA*d[5mC]*eA*eG*e[5mC]*eA*eG) [compound 771730]
- % inhibition of SMAD7 mRNA expression [3]: 27%

Substance: 771731 (antisense eA*eA*eA*eA*e[5mC]*dT*dT*dT*dG*dT*dG*d[5mC]*d[5mC]*dT*dG*eT*eT*eT*e[5mC]*eA) [compound 771731]
- % Inhibition [1]: 54%
- % inhibition of SMAD7 mRNA expression [4]: 44%

Substance: 771735 (antisense eT*eG*eG*eG*eT*d[5mC]*d[5mC]*d[5mC]*dT*d[5mC]*dA*dA*dG*dA*dG*e[5mC]*eT*e[5mC]*eA*e[5mC]) [compound 771735]
- % Inhibition [1]: 38%

Substance: 771736 (antisense eT*eG*e[5mC]*e[5mC]*eA*dG*dA*dT*d[5mC]*dT*d[5mC]*dA*dG*dG*dT*e[5mC]*eA*eA*eG*eA) [compound 771736]
- % Inhibition of SMAD7 mRNA [1]: 34%
- % inhibition of SMAD7 mRNA expression [3]: 0%

Substance: 771738 (antisense eG*eA*eG*e[5mC]*eT*dT*d[5mC]*d[5mC]*dT*dA*dA*dG*dT*dA*d[5mC]*eT*eG*eT*eT*eA) [compound 771738]
- % inhibition of SMAD7 mRNA expression [3]: 14%

Substance: 771739 (antisense eT*eT*eT*eG*eA*dA*dA*dA*d[5mC]*d[5mC]*d[5mC]*dA*dA*d[5mC]*d[5mC]*e[5mC]*eT*eG*eG*eG) [compound 771739]
- % Inhibition [1]: 33%
- % inhibition of SMAD7 mRNA expression [4]: 22%

Substance: 771740 (antisense eG*e[5mC]*e[5mC]*eA*e[5mC]*dT*d[5mC]*d[5mC]*dT*dG*dA*d[5mC]*dT*d[5mC]*dA*e[5mC]*eG*e[5mC]*eA*eA) [compound 771740]
- % Inhibition [1]: 20%

Substance: 771741 (antisense eG*eG*eT*e[5mC]*eT*d[5mC]*dA*d[5mC]*d[5mC]*dT*dT*dA*dG*dG*d[5mC]*e[5mC]*eT*eG*eT*eG) [compound 771741]
- % inhibition of SMAD7 mRNA expression [2]: 53%

Substance: 771743 (antisense eG*e[5mC]*e[5mC]*eA*eT*dA*d[5mC]*d[5mC]*dT*d[5mC]*d[5mC]*dA*dT*d[5mC]*dT*e[5mC]*eT*e[5mC]*eA*e[5mC]) [compound 771743]
- % Inhibition [1]: 0%

Substance: 771744 (antisense eG*eG*e[5mC]*eT*eA*dT*dT*d[5mC]*d[5mC]*d[5mC]*dA*dA*dG*dA*dG*eT*e[5mC]*e[5mC]*eA*eG) [compound 771744]
- % Inhibition of SMAD7 mRNA [1]: 40%
- % inhibition of SMAD7 mRNA expression [3]: 23%

Substance: 771745 (antisense eG*eT*eG*eA*eA*dG*dA*dA*dG*d[5mC]*dA*dA*dA*dG*dT*eA*eT*eA*e[5mC]*e[5mC]) [compound 771745]
- % inhibition of SMAD7 mRNA expression [3]: 24%

Substance: 771746 (antisense eA*eA*eG*e[5mC]*e[5mC]*dG*dG*dG*d[5mC]*dA*dT*d[5mC]*dT*d[5mC]*dA*eG*eA*eG*e[5mC]*eA) [compound 771746]
- % inhibition of SMAD7 mRNA expression [3]: 22%

Substance: 771747 (antisense eG*eT*eG*eT*eG*dT*dT*dT*d[5mC]*dA*dA*dA*dG*dG*dA*eA*eA*eA*eG*e[5mC]) [compound 771747]
- % Inhibition [1]: 10%
- % inhibition of SMAD7 mRNA expression [4]: 2%

Substance: 771748 (antisense eA*e[5mC]*e[5mC]*e[5mC]*e[5mC]*d[5mC]*dA*d[5mC]*dA*dT*dT*dA*dA*dA*d[5mC]*eA*eT*eA*eA*eT) [compound 771748]
- % Inhibition [1]: 0%

Substance: 771749 (antisense eG*eA*eA*eA*eT*dG*dG*dA*dG*dT*dT*dA*d[5mC]*dT*dT*eG*eT*eT*eA*eA) [compound 771749]
- % inhibition of SMAD7 mRNA expression [2]: 29%

Substance: 771750 (antisense eG*eG*eA*e[5mC]*eA*dA*d[5mC]*dT*dT*dT*dT*d[5mC]*dA*dA*dG*eA*eA*e[5mC]*eT*e[5mC]) [compound 771750]
- % Inhibition [1]: 29%

Substance: 771751 (antisense eT*eG*eG*e[5mC]*e[5mC]*dA*dT*dG*d[5mC]*dT*dG*dG*d[5mC]*dA*dA*eA*eT*eA*eG*eG) [compound 771751]
- % Inhibition [1]: 25%

Substance: 771752 (antisense eA*eA*eT*eG*eT*d[5mC]*d[5mC]*d[5mC]*dT*dG*dT*dG*dG*dG*dT*eT*eT*e[5mC]*e[5mC]*eA) [compound 771752]
- % Inhibition of SMAD7 mRNA [1]: 3%
- % inhibition of SMAD7 mRNA expression [3]: 0%

Substance: 771753 (antisense eG*eT*e[5mC]*e[5mC]*eA*dT*dG*dA*dA*d[5mC]*d[5mC]*dA*d[5mC]*dA*dA*e[5mC]*eT*e[5mC]*eA*eT) [compound 771753]
- % inhibition of SMAD7 mRNA expression [3]: 50%

Substance: 771754 (antisense e[5mC]*e[5mC]*e[5mC]*eT*e[5mC]*dA*dG*dG*dT*dA*d[5mC]*dT*d[5mC]*dT*dG*e[5mC]*eA*e[5mC]*eA*eG) [compound 771754]
- % inhibition of SMAD7 mRNA expression [3]: 45%

Substance: 771755 (antisense eA*eA*eA*e[5mC]*eA*dT*dT*dT*dG*dG*d[5mC]*dA*d[5mC]*d[5mC]*d[5mC]*eA*eA*e[5mC]*eA*e[5mC]) [compound 771755]
- % Inhibition [1]: 35%
- % inhibition of SMAD7 mRNA expression [4]: 44%

Substance: 771756 (antisense e[5mC]*e[5mC]*eA*eG*eG*d[5mC]*dA*dA*d[5mC]*d[5mC]*d[5mC]*d[5mC]*dA*dG*dA*e[5mC]*e[5mC]*eT*eG*e[5mC]) [compound 771756]
- % Inhibition [1]: 11%

Substance: 771757 (antisense eT*e[5mC]*e[5mC]*e[5mC]*e[5mC]*dT*dT*dT*dT*dT*dT*dA*dA*dT*dT*eG*eA*eG*eG*eA) [compound 771757]
- % inhibition of SMAD7 mRNA expression [2]: 48%

Substance: 771758 (antisense eA*eT*eT*eA*e[5mC]*d[5mC]*dA*dG*dT*d[5mC]*d[5mC]*d[5mC]*d[5mC]*d[5mC]*dA*eT*eT*eA*e[5mC]*eG) [compound 771758]
- % Inhibition [1]: 0%

Substance: 771759 (antisense eG*e[5mC]*eA*eT*eT*dA*d[5mC]*d[5mC]*dA*dG*dT*d[5mC]*d[5mC]*d[5mC]*d[5mC]*e[5mC]*eA*eT*eT*eA) [compound 771759]
- % Inhibition [1]: 26%

Substance: 771760 (antisense eA*eT*e[5mC]*eT*eT*dA*d[5mC]*d[5mC]*dT*dG*dA*dA*dA*dG*d[5mC]*e[5mC]*e[5mC]*e[5mC]*e[5mC]*e[5mC]) [compound 771760]
- % Inhibition of SMAD7 mRNA [1]: 25%
- % inhibition of SMAD7 mRNA expression [3]: 3%

Substance: 771761 (antisense e[5mC]*e[5mC]*e[5mC]*e[5mC]*eA*dT*dT*d[5mC]*d[5mC]*dT*d[5mC]*d[5mC]*dA*dG*dT*e[5mC]*eT*eT*eT*eA) [compound 771761]
- % inhibition of SMAD7 mRNA expression [3]: 33%

Substance: 771763 (antisense e[5mC]*e[5mC]*e[5mC]*e[5mC]*eG*dT*d[5mC]*d[5mC]*dA*d[5mC]*dG*dG*dA*dA*d[5mC]*eG*eG*eA*eT*e[5mC]) [compound 771763]
- % Inhibition [1]: 45%
- % inhibition of SMAD7 mRNA expression [4]: 34%

Substance: 771764 (antisense eA*e[5mC]*eA*e[5mC]*eT*dT*d[5mC]*dA*d[5mC]*dA*d[5mC]*dA*d[5mC]*d[5mC]*dA*eA*eA*eG*e[5mC]*eA) [compound 771764]
- % Inhibition [1]: 20%

Substance: 771765 (antisense e[5mC]*e[5mC]*eA*eA*eG*d[5mC]*d[5mC]*dA*dG*dG*dA*dG*d[5mC]*dT*dG*e[5mC]*eT*eT*eA*eA) [compound 771765]
- % inhibition of SMAD7 mRNA expression [2]: 48%

Substance: 771766 (antisense e[5mC]*eT*eG*eA*eA*dG*d[5mC]*d[5mC]*d[5mC]*d[5mC]*d[5mC]*d[5mC]*dA*dA*dG*e[5mC]*e[5mC]*eA*eG*eG) [compound 771766]
- % Inhibition [1]: 5%

Substance: 771767 (antisense e[5mC]*e[5mC]*eT*eA*eA*dA*dG*dG*dT*dG*dG*dG*dT*d[5mC]*d[5mC]*eA*eT*eT*e[5mC]*e[5mC]) [compound 771767]
- % Inhibition [1]: 16%

Substance: 771768 (antisense eG*eT*eA*eT*eG*d[5mC]*dT*dT*dG*dG*dG*dA*dT*d[5mC]*dT*eG*eT*e[5mC]*eT*eT) [compound 771768]
- % Inhibition of SMAD7 mRNA [1]: 24%
- % inhibition of SMAD7 mRNA expression [3]: 11%

Substance: 771771 (antisense e[5mC]*eA*eG*e[5mC]*eT*d[5mC]*d[5mC]*dT*dA*d[5mC]*dT*dG*dT*dT*dG*eG*e[5mC]*eA*eG*eT) [compound 771771]
- % Inhibition [1]: 22%
- % inhibition of SMAD7 mRNA expression [4]: 63%

Substance: 771772 (antisense eT*e[5mC]*e[5mC]*eT*e[5mC]*dA*dG*dG*dA*dA*d[5mC]*dA*dA*d[5mC]*dA*eA*eT*eG*e[5mC]*eT) [compound 771772]
- % Inhibition [1]: 27%

Substance: 771774 (antisense eG*eA*eA*eA*eA*dA*d[5mC]*dA*dG*dG*dT*dA*dG*dA*dA*eA*eT*eA*eG*eG) [compound 771774]
- % Inhibition [1]: 14%
